Data: PMC12192727, “Strategies to Develop Na,K-ATPase-α4 Inhibitors as Male Contraceptives” (International Journal of Molecular Sciences, 2025)
Where two headings read alike, the source gives them in different places. Values belong to the molecule of their own block, whether it stands above or below them.

Assays:
mouse sperm = test: Mouse sperm total motility in vitro (CASA); type: cell-based; conditions: for Emax: Mus musculus, Sperm, 1 h, nanomolar range concentration, read-out: Maximal Motility Inhibition (%); for Emax / Shape of inhibitory dose response on sperm motility: mouse sperm total motility
Method: To characterize the SAR of these compounds, we first evaluated their effects on total sperm motility in vitro. Sperm isolated from the cauda epididymis of mice were incubated with the test compounds in modified Whitten’s medium under non-capacitating conditions. Motility was assessed using a computer-assisted sperm analysis (CASA) system.
All experimental protocols involving animals used in this work were approved by the University of Kansas Medical Center Institutional Animal Care and Use Committee (ACUP number: 22-09-26, 10/2022). C57BL/6 mice were purchased from Harlan (Indianapolis, IN, USA). Spermatozoa were isolated from the cauda of adult mouse epididymis in Whitten’s medium, containing 100 mM NaCl, 4.7 mM KCl, 1.2 mM KH2PO4, 1.2 mM MgSO4, 5.5 mM glucose, 0.8 mM pyruvic acid, 4.8 mM lactic acid, and 40 mM Hepes, as previously described.
Spermatozoa (1 × 10^6 cells) were incubated at 37 °C in 100 μL of Whitten’s medium, with the addition of 1.7 mM CaCl2 and in the absence and presence of different amounts of the tested compounds for 60 min. Then, cells were labeled with the fluorescent nucleic acid stain SYTO 21, which allows for the tracking of the movement of the cell head. After 1 min of incubation with the dye, 5.5 μL aliquots from each sample were taken and placed into a glass cell chamber (Leja Products B.V., Nieuw-Vennep, The Netherlands). Sperm were maintained at 37 °C on a heated platform and viewed with an Olympus BX51 microscope (Olympus, Center Valley, PA, USA) through a 20× phase objective. Images of the moving sperm were captured using a CCD camera. Samples were analyzed by CASA using the Minitube SpermVision Digital Semen Evaluation system (version 3.5; Penetrating Innovations, Verona, WI, USA). An average of 200 cells/field were captured, at a rate of 30 frames per field, and a total of 10 fields in each sample were analyzed. Total sperm motility was obtained from sperm maintained in a non-capacitating medium, while for assessing the hyperactive pattern of motility, typical of sperm capacitation, cells were incubated in Whitten’s medium with the addition of 1.7 mM CaCl2, 25 mM sodium bicarbonate, and 0.5% bovine serum albumin.
(§1) Figure 2 Effect of simplified steroidal analogs on mouse sperm total motility. Sperm was isolated from the cauda epididymis and treated in the absence and presence of the indicated concentrations of each compound. After one hour of incubation, sperm motility was determined by CASA. Values are expressed as the mean ± SEM of three determinations.
as §1, with “4” for “2”, “non-steroidal small compounds” for “simplified steroidal analogs”, “1 h” for “one hour”

Caco-2 cell permeability = type: in vitro ADME, human; conditions: human; for Papp A→B / recovery: Caco-2, Caco-2 cells; for Papp A→B: read-out: Papp (A-B); for Papp B→A / efflux ratio: Caco-2 cells; for efflux ratio: Papp(B-A)/Papp(A-B)
Method: The in vitro permeability and potential to be transported by P-gp (P-glycoprotein) were determined in a Caco-2 or MDCK cell line. Values are reported for a mass recovery > 60%. The efflux ratio was determined as follows: P^app(B-A)/Papp(A-B). The experimental details are reported in the Supporting Information (Tables S2–S5).
The recovery can be determined using the following equation:
Recovery%=(VA×[drug]acceptor+VD×[drug]donor)/(VD×[drug]initial, donor)
Where VA is the volume (in mL) in the acceptor well (0.235 mL for Ap→Bl flux, and 0.075 mL for
Bl→Ap), VD is the volume (in mL) in the donor well (0.075 mL for Ap→Bl flux, and 0.235 mL for
The leakage of Lucifer Yellow, in unit of percentage (%), can be calculated using the following
%LY leakage = 100×[LY]acceptor×0.3/([LY]donor×0.1+[LY]acceptor×0.3)
LY leakage of <1% is acceptable to indicate the well-qualified MDCK/ Caco-2 monolayer.
Table S5 . The Assessment of Caco-2 Cell Monolayer Integrity
The apparent permeability coefficient (Papp), Efflux ratio (ER), recovery percentage, and LY leakage percentage can be
calculated for Caco-2 Cell drug transport assays using the above equations. […]

MDCK cell permeability = conditions: dog, MDCK; for Papp A→B / recovery: MDCK cells; for Papp A→B: BSA 0% for controls, 0.5% for 13
[1] = simplified steroid analogs, mouse sperm motility
[2] = non-steroidal small molecules, mouse sperm motility

Papp A→B (Caco-2 cell permeability): 7.59 ×10⁻⁶ cm/s | recovery (Caco-2 cell permeability; read-out: Recovery (%) AP-BL): 71.4% | recovery (Caco-2 cell permeability; read-out: Recovery (%) BL-AP): 85% | Papp B→A (Caco-2 cell permeability): 24.3 ×10⁻⁶ cm/s
SMILES: COc1cc2nc(N3CCN(C(=O)c4ccco4)CC3)nc(N)c2cc1OC [Prazosin]

IC50 (mouse sperm; [2]): 60 pM
SMILES: CC12CCC(=NN=C(N)N)C=C1CCCC2c1cn(Cc2ccccc2)nn1 (centres unmarked) [Compound 40, N’-(5-(1-Benzyl-1H-1,2,3-triazol-4-yl)-4a-methyl-4,4a,5,6,7,8-hexahydronaphthalen-2(3H)-ylidene)amidinohydrazone]
Emax (mouse sperm; non-steroidal small molecules): 49%

IC50 (mouse sperm; [2]): 23 pM
SMILES: C[C@]12CCC(=O)C=C1CC[C@@H]2c1cn(Cc2ccccc2)nn1 [Compound 33, (1S,7aR)-1-(1-Benzyl-1H-1,2,3-triazol-4-yl)-7a-methyl-1,2,3,6,7,7a-hexahydro-5H-inden-5-one]
Emax (mouse sperm; non-steroidal small molecules): 48%

IC50 (mouse sperm; [2]): 302 pM
SMILES: CC12CCC(=NN=C(N)N)C=C1CCCC2C=NN=C(N)N (centres unmarked) [Compound 42, (E+Z)-2-((6-(2-Carbamimidoylhydrazineylidene)-8a-methyl-1,2,3,4,6,7,8,8a-octahydronaphthalen-1-yl)methylene)hydrazine-1-carboximidamide]
Emax (mouse sperm; non-steroidal small molecules): 49%

IC50 (mouse sperm; [2]): 71 pM
SMILES: CC12CCC(=O)C=C1CCC2c1c[nH]nn1 [Compound 35, (1S,7aR)-7a-Methyl-1-(1H-1,2,3-triazol-4-yl)-1,2,3,6,7,7a-hexahydro-5H-inden-one]
Emax (mouse sperm; non-steroidal small molecules): 47%

IC50 (mouse sperm; [2]): 37 pM
SMILES: CC12CCC(=NN=C(N)N)C=C1CCC2C=NN=C(N)N [Compound 41, (E+Z)-2-(((1S,7aR,E)-5-(2-Carbamimidoylhydrazineylidene)-7a-methyl-2,3,5,6,7,7a-hexahydro-1H-inden-1-yl)methylene)hydrazine-1-carboximidamide, reference compound]
Emax (mouse sperm; non-steroidal small molecules): 44%

Further lines, the molecule ahead of its results:

SMILES: C[C@]12CC[C@H]3[C@@H](CC=C4C[C@H](N5CCOCC5)CC[C@@]43C)[C@@H]1CC[C@H]2n1cc(-c2ccccc2)nn1 [Compound 26, 4-((3R,8R,9S,10R,13S,14S,17R)-10,13-Dimethyl-17-(4-phenyl-1H-1,2,3-triazol-1-yl)-2,3,4,7,8,9,10,11,12,13,14,15,16,17-tetradecahydro-1H-cyclopenta[a]phenanthren-3-yl)morpholine]
Emax (mouse sperm; simplified steroid analogs): ~40% | Shape of inhibitory dose response on sperm motility (mouse sperm): biphasic inhibition | IC50 (mouse sperm; [1]): 31 pM

SMILES: COCCc1ccc(OCC(O)CNC(C)C)cc1 (centres unmarked) [Metoprolol]
Papp B→A (MDCK cell permeability): 17 ×10⁻⁶ cm/s | efflux ratio (MDCK cell permeability): 0.79 | Papp A→B (MDCK cell permeability): 21.6 ×10⁻⁶ cm/s | recovery (MDCK cell permeability; Recovery (%) AP-BL): 83.5% | recovery (MDCK cell permeability; Recovery (%) BL-AP): 97.1%

SMILES: CC(C)NCC(O)COc1cccc2ccccc12 (centres unmarked) [Propranolol]
Papp A→B (Caco-2 cell permeability): 24.4 ×10⁻⁶ cm/s | recovery (Caco-2 cell permeability; read-out: Recovery (%) AP-BL): 72.8% | recovery (Caco-2 cell permeability; read-out: Recovery (%) BL-AP): 86.6% | Papp B→A (Caco-2 cell permeability): 16.4 ×10⁻⁶ cm/s | efflux ratio (Caco-2 cell permeability): 0.67

SMILES: C[C@]12CC[C@H](OC(=O)[C@@H](N)CCCCN)CC1=CCC1C2CC[C@@]2(C)C1CC[C@@H]2c1cn(Cc2ccccc2)nn1.Cl.Cl (stereo partly drawn) [Compound 19, (3S,10R,13S,17S)-17-(1-Benzyl-1H-1,2,3-triazol-4-yl)-10,13-dimethyl-2,3,4,7,8,9,10,11,12,13,14,15,16,17-tetradecahydro-1H-cyclopenta[a]phenanthren-3-yl L-Lysinate Dihydrochloride]
Emax (mouse sperm; simplified steroid analogs): ~37% | Shape of inhibitory dose response on sperm motility (mouse sperm): biphasic inhibition | IC50 (mouse sperm; [1]): 32 pM

SMILES: C[C@H]1O[C@@H](O[C@H]2[C@@H](O)C[C@H](O[C@H]3[C@@H](O)C[C@H](O[C@H]4CC[C@@]5(C)[C@H](CC[C@@H]6[C@@H]5C[C@@H](O)[C@]5(C)[C@@H](C7=CC(=O)OC7)CC[C@]65O)C4)O[C@@H]3C)O[C@@H]2C)C[C@H](O)[C@@H]1O [Digoxin]
Papp A→B (Caco-2 cell permeability): 0.63 ×10⁻⁶ cm/s | recovery (Caco-2 cell permeability; read-out: Recovery (%) AP-BL): 88.7% | recovery (Caco-2 cell permeability; read-out: Recovery (%) BL-AP): 107% | Papp B→A (Caco-2 cell permeability): 18.8 ×10⁻⁶ cm/s | efflux ratio (Caco-2 cell permeability): 30 | Papp B→A (MDCK cell permeability): 3.29 ×10⁻⁶ cm/s | efflux ratio (MDCK cell permeability): 3.26 | Papp A→B (MDCK cell permeability): 1.01 ×10⁻⁶ cm/s | recovery (MDCK cell permeability; Recovery (%) AP-BL): 84% | recovery (MDCK cell permeability; Recovery (%) BL-AP): 106%

SMILES: C[C@]12CC[C@H]3[C@@H](CC=C4C[C@@H](O)CC[C@@]43C)[C@@H]1CC[C@@H]2c1c[nH]nn1 [Compound 15, (3S,8S,9S,10R,13S,14S,17S)-10,13-Dimethyl-17-(1H-1,2,3-triazol-4-yl)-2,3,4,7,8,9,10,11,12,13,14,15,16,17-tetradecahydro-1H-cyclopenta[a]phenanthren-3-ol]
Emax (mouse sperm; simplified steroid analogs): 42% | Shape of inhibitory dose response on sperm motility (mouse sperm): monotonic inhibitory response | IC50 (mouse sperm; [1]): 19 pM | IC50 (pM) (mouse sperm; [1]): sub-nanomolar range

SMILES: C[C@]12CC[C@H]3[C@@H](CC=C4C[C@@H](O)CC[C@@]43C)[C@@H]1CC[C@H]2n1cc(-c2ccccc2)nn1 [Compound 24, (3S,8R,9S,10R,13S,14S,17R)-10,13-Dimethyl-17-(4-phenyl-1H-1,2,3-triazol-1-yl)-2,3,4,7,8,9,10,11,12,13,14,15,16,17-tetradecahydro-1H-cyclopenta[a]phenanthren-3-ol]
Emax (mouse sperm; simplified steroid analogs): 50% | Shape of inhibitory dose response on sperm motility (mouse sperm): biphasic inhibition | IC50 (mouse sperm; [1]): 15 pM
